Source: patent EP0036436A1, “Methyl 11alpha,15R-dihydroxy-16,18-methano-16-methyl-9-oxoprost-13E-en-1-oate, a process for its production and composition containing it” (MILES LABORATORIES, INC., priority 1980, dated 1981)
Values joined by “and” are separate entries in the source; they are usually repeats but may differ in a detail not shown here. Equal values may be shown once.

Tests used:
tracheobronchial tract = assay: irritancy to the tracheobronchial tract: 10 minute aerosol challenge in conscious cats; assay type: in vivo; details: for Cough / %ΔRR = percent change in respiratory rate: conscious cats, 10 minute aerosol challenge; for times less potent an irritant than PGE1: computer program of relative potencies on the data of Tables I and II, PGE1 as standard
Procedure: PGE1 and the test compounds were dissolved in absolute ethanol to give stock solutions of 10 mg/ml. These stock solutions and an ethanol vehicle were diluted using isotonic saline adjusted with phosphate buffer to pH 7.2.
Specific pathogen free cats (Category III) of either sex from the Laboratory Animals Centre were used. Conscious cats (2-4 kg) were restrained in an adjustable Perspex box with their heads protruding into a separate Perspex chamber with a seal around the neck. The respiratory pattern and rate of each cat was recorded via a Fleisch head pneumotachograph protruding into the top of the chamber. Sound was recorded by a microphone also protruding into the chamber. An aerosol of 1-8µm particle size was generated by a Monaghan 670 Ultrasonic nebulizer and passed to the cat's face via an opening in the front of the chamber. Each cat was challenged initially for 10 minutes with an aerosol of isotonic saline adjusted with phosphate buffer to pH 7.2 plus the appropriate concentration of ethanol. This control challenge was followed by a 10 minute aerosol challenge of the test compound of PGE1 in the appropriate vehicle. This 10 minute challenge period is much greater than the brief period of inhalation likely to be used in man, but it does produce a larger number of coughs and enables us to determine the potency of the analogue relative to PGE1 in producing other unwanted side effects.
Seven days were left between successive challenges to avoid the development of tolerance. Both drugs were tested in 5 cats using a wide range of concentrations of aerosol stock solutions. Each cat was observed during and up to 24 hours after the experiment for other side effects, e.g., sedation, diarrhea, and salivation.

human bronchial muscle = assay: relaxation of the human bronchial muscle relative to PGE1; assay type: cell-based; details: for relative potency to PGE1: relaxation of human bronchial muscle, PGE1 as standard
Procedure: The compounds prepared as described in Examples I and II, i.e., TR-4681 and TR-4690, were tested to determine their activity in the relaxation of the human bronchial muscle relative to PGE1. […] If potency as a bronchodilator were the only criterion upon which a drug of this type were judged, TR-4690 would be preferred. […] This screen and the results observed in using it to test TR-4681 and TR-4690 are as follows: […]

Row | Compound | Cough (tracheobronchial tract; Conc 100.0 µg/ml) | Cough (tracheobronchial tract; Conc 500.0 µg/ml) | relative potency to PGE1 (human bronchial muscle) | times more potent than TR-4681 as a bronchodilator (human bronchial muscle; relaxing human bronchial muscle, compared with TR-4681) | times more potent an irritant than TR-4681 (tracheobronchial tract; compared with TR-4681) | times less potent an irritant than PGE1 (tracheobronchial tract) | %ΔRR = percent change in respiratory rate (tracheobronchial tract; Conc 1.0 µg/ml) | Cough (tracheobronchial tract; Conc 1.0 µg/ml) | %ΔRR = percent change in respiratory rate (tracheobronchial tract; Conc 10.0 µg/ml) | Cough (tracheobronchial tract; Conc 10.0 µg/ml) | %ΔRR = percent change in respiratory rate (tracheobronchial tract; Conc 50.0 µg/ml) | Cough (tracheobronchial tract; Conc 50.0 µg/ml) | %ΔRR = percent change in respiratory rate (tracheobronchial tract; Conc 100.0 µg/ml) | %ΔRR = percent change in respiratory rate (tracheobronchial tract; Conc 500.0 µg/ml) | times less potent an irritant to the tracheobronchial tract than TR-4690 (tracheobronchial tract; compared with TR-4690)
1 | CCCCC[C@H](O)/C=C/[C@H]1[C@H](O)CC(=O)[C@@H]1CCCCCCC(=O)O [PGE1, prostaglandin E1] | 33 and 31 | 58 and 63 | – | – | – | – | – | – | – | – | – | – | – | – | –
2 | COC(=O)CCCCCC[C@H]1C(=O)C[C@@H](O)[C@@H]1/C=C/[C@@H](O)C1(C)CCC1 [TR-4690, Methyl 16,19-cyclo-11α,15R-dihydroxy-16-methyl-20-nor-9-oxoprost-13E-en-l-oate] | 1 | 33 | 3.9 | approximately 3 times | approximately 25 times | approximately 2 times | +5% | 6 | +11% | 5 | +26% | 15 | +21% | +39% | –
3 | CCC1CC(C)([C@H](O)/C=C/[C@H]2[C@H](O)CC(=O)[C@@H]2CCCCCCC(=O)OC)C1 (stereo partly drawn) [TR-4681, Methyl 11α,15R-dihydroxy-16,18-methano-16-methyl-9-oxoprost-13E-en-l-oate] | 11 | 14 | 1.33 | – | – | approximately 50 times | 0% | 0 | +3% | 0 | +41% | 16 | +41% | +67% | twenty-five times less potent
